“And” between values parts separate entries of the source, which are not always exact repeats. Identical values can stand only once. “Also recorded” adds a separate entry of the source. Like-named read-outs stand apart in the source and are kept apart here.
How the values were obtained:
[1] = test system: EPSPS (TIPS mutant) from common wheat; assay type: cell-based, Triticum Aestivum
[2] = test system: EPSPS (wild type) from common wheat; assay type: cell-based, Triticum Aestivum; settings: for ability of rescued AB2829 bacteria cells (wild type EPSPS) to grow on M9 minimal media: 40 h, 0.1% rhamnose
[3] = test system: EPSPS (TIPS mutant) from common wheat; assay type: cell-based, Triticum Aestivum; remark: listed apart in the source
[4] = test system: Chenopodium album (CHEAL); experiment: Weed efficacy on petri dishes, germination and visual notation, CHEAL; assay type: in vivo; settings: for CHEAL Visual notation Mean: scale 0 = as control to 100
[5] = test system: Lolium multiflorum (LOLMU); experiment: Weed efficacy on petri dishes, germination and visual notation, LOLMU; assay type: in vivo; settings: for LOLMU Visual notation Mean: scale 0 = as control to 100
TIPS EPSPS = TIPS EPSPS (Triticum aestivum, UniProt B5M6A1, P172S/T168I); assay type: biochemical; settings: for effect of the TIPS mutation on inhibition of EPSPS activity (IC50 WT vs TIPS): WT vs TIPS EPSPS enzyme
WT EPSPS = WT EPSPS (Triticum aestivum, UniProt B5M6A1); experiment: In-vitro kinetics of EPSPS enzymatic activity (Malachite green phosphate release), WT; assay type: biochemical; settings: apparent Km increases, Vmax unaffected; glyphosate vs PEP, compound 4 vs S3P
WT EPSPS, sequence (B5M6A1 66-510 limits assumed): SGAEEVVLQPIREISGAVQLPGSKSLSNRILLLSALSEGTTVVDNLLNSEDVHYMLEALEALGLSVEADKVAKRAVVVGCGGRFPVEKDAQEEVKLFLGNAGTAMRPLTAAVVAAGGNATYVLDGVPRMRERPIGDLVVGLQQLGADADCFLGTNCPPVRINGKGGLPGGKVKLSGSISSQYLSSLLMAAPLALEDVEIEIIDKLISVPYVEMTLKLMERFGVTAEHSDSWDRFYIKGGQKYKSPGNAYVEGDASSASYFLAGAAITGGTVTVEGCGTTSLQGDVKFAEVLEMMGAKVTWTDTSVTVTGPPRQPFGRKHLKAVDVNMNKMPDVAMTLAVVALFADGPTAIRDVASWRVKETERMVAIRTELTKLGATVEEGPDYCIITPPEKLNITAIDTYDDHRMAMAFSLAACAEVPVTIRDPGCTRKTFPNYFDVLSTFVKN

TIPS EPSPS, sequence (B5M6A1 66-510 P172S/T168I limits assumed): as the sequence (B5M6A1 66-510 limits assumed) above, with T103I, P107S counted along it

SMILES: Nc1ccc([N+](=O)[O-])cc1C(=O)O [Compound 7, 2-Amino-5-nitrobenzoic acid]
- % bacterial growth relative to rescue with mutant EPSPS at 20 mM, 40 h post application [1]: −260%
- ability of rescued AB2829 bacteria cells (EPSPS TIPS) to grow on M9 minimal media ([1]; 20 mM, 40 h, 0.1% rhamnose): completely abolish

SMILES: O=C1NC(=O)c2c1ccc(O)c2O [Compound 13, 4,5-Dihydroxyisoindoline-1,3-dione]
- % bacterial growth relative to rescue with wild type EPSPS at 5 mM, 40 h post application [2]: −20%
- ability of rescued AB2829 bacteria cells (wild type EPSPS) to grow on M9 minimal media ([2]; 5 mM): completely abolish
- % bacterial growth relative to rescue with mutant EPSPS at 20 mM, 40 h post application [1]: −31%
- ability of rescued AB2829 bacteria cells (EPSPS TIPS) to grow on M9 minimal media ([1]; 20 mM, 40 h, 0.1% rhamnose): completely abolish
- growth with gradually increasing rhamnose (EPSPS TIPS titration) ([3]; 0.25 mM, rhamnose 0%-0.4%, 60 h): could not facilitates growth in a gradual manner
- rescue of growth phenotype by titration of EPSPS TIPS intracellular levels ([3]; single inhibitory dose, rhamnose 0.0%-0.4%): couldn't rescue the growth phenotype

SMILES: O=C(O)c1ccc(O)c([N+](=O)[O-])c1 [Compound 10, 4-Hydroxy-3-nitrobenzoic acid]
- % bacterial growth relative to rescue with wild type EPSPS at 5 mM, 40 h post application [2]: −61%
- ability of rescued AB2829 bacteria cells (wild type EPSPS) to grow on M9 minimal media ([2]; 5 mM): completely abolish
- CHEAL Germination (%) Mean ([4]; 50 mg a.i./L, 10 DAT): 68.8%
- CHEAL Visual notation Mean ([4]; 50 mg a.i./L, 10 DAT): 52.4
- CHEAL Germination (%) Mean ([4]; 500 mg a.i./L, 10 DAT): 81.7%
- CHEAL Visual notation Mean ([4]; 500 mg a.i./L, 10 DAT): 54.4
- CHEAL Germination (%) Mean ([4]; 5000 mg a.i./L, 10 DAT): 56.7%
- CHEAL Visual notation Mean ([4]; 5000 mg a.i./L, 10 DAT): 76.5
- LOLMU Germination (%) Mean ([5]; 50 mg a.i./L, 10 DAT): 95.6%
- LOLMU Visual notation Mean ([5]; 50 mg a.i./L, 10 DAT): 18.4
- LOLMU Germination (%) Mean ([5]; 500 mg a.i./L, 10 DAT): 95.6%
- LOLMU Visual notation Mean ([5]; 500 mg a.i./L, 10 DAT): 31.8
- LOLMU Germination (%) Mean ([5]; 5000 mg a.i./L, 10 DAT): 95.6%
- LOLMU Visual notation Mean ([5]; 5000 mg a.i./L, 10 DAT): 54.0
- % bacterial growth relative to rescue with mutant EPSPS at 20 mM, 40 h post application [1]: −21%
- ability of rescued AB2829 bacteria cells (EPSPS TIPS) to grow on M9 minimal media ([1]; 20 mM, 40 h, 0.1% rhamnose): completely abolish
- growth with gradually increasing rhamnose (EPSPS TIPS titration) ([3]; 0.4 mM, rhamnose 0%-0.4%, 60 h): facilitates growth in a gradual manner

SMILES: COc1c(C(=O)O)ccc([N+](=O)[O-])c1O [Compound 1, 3-Hydroxy-2-methoxy-4-nitrobenzoic acid]
- % bacterial growth relative to rescue with wild type EPSPS at 5 mM, 40 h post application [2]: −15%
- ability of rescued AB2829 bacteria cells (wild type EPSPS) to grow on M9 minimal media ([2]; 5 mM): completely abolish
- % bacterial growth relative to rescue with mutant EPSPS at 20 mM, 40 h post application [1]: −79%
- ability of rescued AB2829 bacteria cells (EPSPS TIPS) to grow on M9 minimal media ([1]; 20 mM, 40 h, 0.1% rhamnose): completely abolish

SMILES: O=C(O)c1cc([N+](=O)[O-])cc(C(F)(F)F)c1 [Compound 15, 3-Nitro-5-(trifluoromethyl) benzoic acid]
- % bacterial growth relative to rescue with wild type EPSPS at 5 mM, 40 h post application [2]: −177%
- % bacterial growth relative to rescue with mutant EPSPS at 20 mM, 40 h post application [1]: −118%
- ability of rescued AB2829 bacteria cells (EPSPS TIPS) to grow on M9 minimal media ([1]; 20 mM, 40 h, 0.1% rhamnose): completely abolish
- growth with gradually increasing rhamnose (EPSPS TIPS titration) ([3]; 0.6 mM, rhamnose 0%-0.4%, 60 h): facilitates growth in a gradual manner

SMILES: O=C(O)c1cccc(C(=O)O)c1O [Compound 5, 2-Hydroxy-1,3-benzenedicarboxylic acid]
- % bacterial growth relative to rescue with mutant EPSPS at 20 mM, 40 h post application [1]: −220%
- ability of rescued AB2829 bacteria cells (EPSPS TIPS) to grow on M9 minimal media ([1]; 20 mM, 40 h, 0.1% rhamnose): completely abolish

SMILES: O=C(O)c1cc(C(F)(F)F)cc([N+](=O)[O-])c1F [Compound 16, 2-Fluoro-3-nitro-5-(trifluoromethyl)benzoic acid]
- % bacterial growth relative to rescue with mutant EPSPS at 20 mM, 40 h post application [1]: −56%
- ability of rescued AB2829 bacteria cells (EPSPS TIPS) to grow on M9 minimal media ([1]; 20 mM, 40 h, 0.1% rhamnose): completely abolish

SMILES: O=C(O)c1cc([N+](=O)[O-])cc([N+](=O)[O-])c1O [Compound 6, 2-Hydroxy-3,5-dinitrobenzoic acid]
- % bacterial growth relative to rescue with mutant EPSPS at 20 mM, 40 h post application [1]: −285%
- ability of rescued AB2829 bacteria cells (EPSPS TIPS) to grow on M9 minimal media [1]: completely abolish

SMILES: CNc1ccc([N+](=O)[O-])cc1C(=O)O [Compound 8, -(Methylamino)-5-nitrobenzoic acid]
- CHEAL Germination (%) Mean ([4]; 50 mg a.i./L, 10 DAT): 90.0%
- CHEAL Visual notation Mean ([4]; 50 mg a.i./L, 10 DAT): 21.8
- CHEAL Germination (%) Mean ([4]; 500 mg a.i./L, 10 DAT): 55.0%
- CHEAL Visual notation Mean ([4]; 500 mg a.i./L, 10 DAT): 83.8
- CHEAL Germination (%) Mean ([4]; 5000 mg a.i./L, 10 DAT): 34.5%
- CHEAL Visual notation Mean ([4]; 5000 mg a.i./L, 10 DAT): 95.0
- LOLMU Germination (%) Mean ([5]; 50 mg a.i./L, 10 DAT): 93.2%
- LOLMU Visual notation Mean ([5]; 50 mg a.i./L, 10 DAT): 3.5
- LOLMU Germination (%) Mean ([5]; 500 mg a.i./L, 10 DAT): 91.1%
- LOLMU Visual notation Mean ([5]; 500 mg a.i./L, 10 DAT): 6.6
- LOLMU Germination (%) Mean ([5]; 5000 mg a.i./L, 10 DAT): 30.4%
- LOLMU Visual notation Mean ([5]; 5000 mg a.i./L, 10 DAT): 64.8
- % bacterial growth relative to rescue with mutant EPSPS at 20 mM, 40 h post application [1]: −272%
- ability of rescued AB2829 bacteria cells (EPSPS TIPS) to grow on M9 minimal media ([1]; 20 mM, 40 h, 0.1% rhamnose): completely abolish

SMILES: O=C(O)CNCP(=O)(O)O [Glyphosate, N-(phosphonomethyl)glycine, reference compound]
- % bacterial growth relative to rescue with wild type EPSPS, 40 h post application [2]: +6.0% (0.7 mM) −46% (1.5 mM)
- ability of rescued AB2829 bacteria cells (wild type EPSPS) to grow on M9 minimal media ([2]; 0.7 mM): could not facilitates growth
- ability of rescued AB2829 bacteria cells (wild type EPSPS) to grow on M9 minimal media ([2]; 1.5 mM): could not facilitates growth
- effect of the TIPS mutation on inhibition of EPSPS activity (IC50 WT vs TIPS) (TIPS EPSPS): 3 orders of magnitude stronger
- % bacterial growth relative to rescue with mutant EPSPS at 20 mM, 40 h post application [1]: +127% (+/−37%)
- ability of rescued AB2829 bacteria cells (EPSPS TIPS) to grow on M9 minimal media ([1]; 20 mM, 40 h, 0.1% rhamnose): TIPS mutant is indifferent to glyphosate; also recorded: facilitates growth
- growth with gradually increasing rhamnose (EPSPS TIPS titration) [3]: facilitates growth in a gradual manner
- mode of EPSPS inhibition (Michaelis-Menten and Lineweaver-Burk plots) (WT EPSPS): competitive inhibitor

SMILES: COC(=O)c1cc([N+](=O)[O-])cc([N+](=O)[O-])c1 [Compound 12, 3,5-Dinitrobenzoic acid methyl ester]
- ability of rescued AB2829 bacteria cells (wild type EPSPS) to grow on M9 minimal media ([2]; 5 mM): completely abolish
- % bacterial growth relative to rescue with mutant EPSPS at 20 mM, 40 h post application [1]: −29%
- ability of rescued AB2829 bacteria cells (EPSPS TIPS) to grow on M9 minimal media [1]: completely abolish

SMILES: O=C(O)c1cc([N+](=O)[O-])c(F)c(C(F)(F)F)c1 [Compound 14, 4-Fluoro-3-nitro-5-(trifluoromethyl)benzoic acid]
- % bacterial growth relative to rescue with mutant EPSPS at 20 mM, 40 h post application [1]: −142%
- ability of rescued AB2829 bacteria cells (EPSPS TIPS) to grow on M9 minimal media ([1]; 20 mM, 40 h, 0.1% rhamnose): completely abolish

SMILES: COc1ccc(C(=O)O)cc1O [Compound 2, 3-Hydroxy-4-methoxybenzoic acid]
- % bacterial growth relative to rescue with wild type EPSPS at 5 mM, 40 h post application [2]: 27%
- ability of rescued AB2829 bacteria cells (wild type EPSPS) to grow on M9 minimal media ([2]; 5 mM): completely abolish
- % bacterial growth relative to rescue with mutant EPSPS at 20 mM, 40 h post application [1]: −25%
- ability of rescued AB2829 bacteria cells (EPSPS TIPS) to grow on M9 minimal media ([1]; 20 mM, 40 h, 0.1% rhamnose): completely abolish

SMILES: Nc1cc(O)c([N+](=O)[O-])cc1C(=O)O [Compound 4, 2-Amino-4-hydroxy-5-nitrobenzoic acid]
- % bacterial growth relative to rescue with wild type EPSPS at 5 mM, 40 h post application [2]: −87%
- ability of rescued AB2829 bacteria cells (wild type EPSPS) to grow on M9 minimal media ([2]; 5 mM): completely abolish
- inhibition of the TIPS mutant relative to glyphosate (TIPS EPSPS; IC50 comparison, TIPS EPSPS enzyme): one order of magnitude better
- effect of the TIPS mutation on inhibition of EPSPS activity (IC50 WT vs TIPS) (TIPS EPSPS): hardly affected
- % bacterial growth relative to rescue with mutant EPSPS at 20 mM, 40 h post application [1]: −94%
- ability of rescued AB2829 bacteria cells (EPSPS TIPS) to grow on M9 minimal media ([1]; 20 mM, 40 h, 0.1% rhamnose): completely abolish
- growth with gradually increasing rhamnose (EPSPS TIPS titration) ([3]; 1.0 mM, rhamnose 0%-0.4%, 60 h): facilitates growth in a gradual manner
- mode of EPSPS inhibition (Michaelis-Menten and Lineweaver-Burk plots) (WT EPSPS): competitive inhibitor

SMILES: O=C(O)c1cccc(O)c1O [Compound 3, 2,3-Dihydroxybenzoic acid]
- % bacterial growth relative to rescue with wild type EPSPS at 5 mM, 40 h post application [2]: 54%
- ability of rescued AB2829 bacteria cells (wild type EPSPS) to grow on M9 minimal media ([2]; 5 mM): completely abolish
- % bacterial growth relative to rescue with mutant EPSPS at 20 mM, 40 h post application [1]: −105%
- ability of rescued AB2829 bacteria cells (EPSPS TIPS) to grow on M9 minimal media ([1]; 20 mM, 40 h, 0.1% rhamnose): completely abolish
- growth with gradually increasing rhamnose (EPSPS TIPS titration) ([3]; 2.5 mM, rhamnose 0%-0.4%, 60 h): facilitates growth in a gradual manner

SMILES: O=C(O)c1cc([N+](=O)[O-])cc([N+](=O)[O-])c1 [Compound 11, 3,5-Dinitrobenzoic acid]
- ability of rescued AB2829 bacteria cells (wild type EPSPS) to grow on M9 minimal media ([2]; 5 mM): completely abolish
- % bacterial growth relative to rescue with wild type EPSPS at 5 mM, 40 h post application ([2]; 5 mM, 40 h post application, OD600, EPSPS null = 0%, Rescue = 100%): −38%
- CHEAL Germination (%) Mean ([4]; in vivo): 73.3% and 66.1% and 37.6%
- LOLMU Germination (%) Mean ([5]; in vivo): 82.2% and 95.6%
- % bacterial growth relative to rescue with mutant EPSPS at 20 mM, 40 h post application [1]: −27%
- ability of rescued AB2829 bacteria cells (EPSPS TIPS) to grow on M9 minimal media [1]: completely abolish
- growth with gradually increasing rhamnose (EPSPS TIPS titration) [3]: facilitates growth in a gradual manner

From patent publication US20210120813A1, “INHIBITORS OF THE SHIKIMATE PATHWAY” (PEPTICOM LTD., priority 2018, published 2021)
